{"source": "patent US20240299393A1", "about": "“SMALL MOLECULE DISRUPTORS OF PROTEIN INTERACTIONS IN HISTONE DEACETYLASE COMPLEXES” (Dana-Farber Cancer Institute, Inc., priority 2021, published 2024)", "key": {"[1]": {"test_system": "Rpd3-sensitive acid phosphatase activity", "experiment": "Yeast acid phosphatase plate assay", "format": "cell-based, S. cerevisiae", "conditions": "phosphate-rich (high Pi) medium", "experimental": "The acid phosphatase plate assay was implemented as previously described [To et al 1973, Loewith et al 2001], with minor modifications. Cells were grown on high Pi medium (see above) for 2 days, at 30° C. A staining solution containing 2 mg/mL of 1-naphtyl phosphate (Sigma, N5602) and 4 mg/mL fast blue B salt (Sigma, D9805) was then prepared in 50 mM sodium acetate buffer pH 4.0±0.1, and maintained at 50° C. for ˜30 min before being filtered. Meanwhile, a solution of 10 mg/mL (1% weight/volume) ultra pure low melting point (LMP) agarose (Invitrogen, 15517-022) was prepared in 50 mM sodium acetate buffer pH 4.0±0.1, by microwaving the suspension until complete dissolution of the powder. The volume of the agarose solution was checked and readjusted with 50 mM sodium acetate buffer pH 4.0±0.1. The agarose solution was then mixed with the filtered staining solution by vortexing briefly, and the resulting suspension was kept at 50° C. for ˜15 min. The solid agar plate on which cells grew for 2 days were then gently overlaid with the agarose-containing staining solution, allowing its gelification on top of the cells. A red coloring started to appear ˜2 min after covering cells with the solution."}, "Sin3 occupancy": {"target": "T1, Sin3 occupancy (Saccharomyces cerevisiae, UniProt P22579)", "T1 construct": "expressed in transfected cells; host or cells: S. cerevisiae JOY116 (sin3Δ) transformed with YEplac181-Sin3-(HA)3", "T1 sequence (P22579 whole entry)": "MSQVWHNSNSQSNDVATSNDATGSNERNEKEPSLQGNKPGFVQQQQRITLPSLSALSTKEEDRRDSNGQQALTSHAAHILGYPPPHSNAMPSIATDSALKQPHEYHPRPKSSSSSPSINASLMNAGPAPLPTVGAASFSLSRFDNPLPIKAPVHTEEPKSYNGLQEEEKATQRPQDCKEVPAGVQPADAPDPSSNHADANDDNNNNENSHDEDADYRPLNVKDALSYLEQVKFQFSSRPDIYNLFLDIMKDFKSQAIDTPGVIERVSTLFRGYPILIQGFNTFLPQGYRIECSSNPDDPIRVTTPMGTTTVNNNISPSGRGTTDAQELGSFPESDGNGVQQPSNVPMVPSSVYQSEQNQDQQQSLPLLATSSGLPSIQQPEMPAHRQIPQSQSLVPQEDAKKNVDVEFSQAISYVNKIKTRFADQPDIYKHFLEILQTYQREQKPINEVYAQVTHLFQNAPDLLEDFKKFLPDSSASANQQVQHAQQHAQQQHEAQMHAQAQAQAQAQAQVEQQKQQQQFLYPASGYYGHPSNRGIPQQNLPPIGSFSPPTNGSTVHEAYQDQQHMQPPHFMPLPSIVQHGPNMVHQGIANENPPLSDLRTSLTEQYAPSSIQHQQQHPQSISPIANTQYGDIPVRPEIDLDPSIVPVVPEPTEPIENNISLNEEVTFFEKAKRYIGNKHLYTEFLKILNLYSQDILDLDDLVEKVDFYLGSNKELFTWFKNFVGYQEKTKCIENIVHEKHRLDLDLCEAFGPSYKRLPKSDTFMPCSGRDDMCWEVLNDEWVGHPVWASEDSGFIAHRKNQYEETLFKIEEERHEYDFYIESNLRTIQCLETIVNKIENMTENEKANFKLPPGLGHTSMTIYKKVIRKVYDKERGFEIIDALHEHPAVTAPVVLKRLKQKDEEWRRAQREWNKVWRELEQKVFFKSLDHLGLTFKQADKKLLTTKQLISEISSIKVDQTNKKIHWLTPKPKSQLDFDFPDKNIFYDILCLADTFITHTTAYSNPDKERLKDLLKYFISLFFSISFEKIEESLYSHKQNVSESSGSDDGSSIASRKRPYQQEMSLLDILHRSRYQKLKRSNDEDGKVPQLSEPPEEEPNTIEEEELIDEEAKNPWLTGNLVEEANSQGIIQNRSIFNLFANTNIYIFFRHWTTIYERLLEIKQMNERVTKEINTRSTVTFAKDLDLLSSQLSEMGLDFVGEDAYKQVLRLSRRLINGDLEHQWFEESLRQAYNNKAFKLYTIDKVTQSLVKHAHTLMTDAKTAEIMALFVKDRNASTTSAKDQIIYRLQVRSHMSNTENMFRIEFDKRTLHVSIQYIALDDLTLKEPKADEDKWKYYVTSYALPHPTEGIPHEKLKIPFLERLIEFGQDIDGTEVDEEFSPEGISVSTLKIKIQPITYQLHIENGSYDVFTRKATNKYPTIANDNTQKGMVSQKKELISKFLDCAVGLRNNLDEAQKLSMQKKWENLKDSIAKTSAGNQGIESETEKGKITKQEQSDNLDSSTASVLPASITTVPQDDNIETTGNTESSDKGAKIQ", "experiment": "ChIP-qPCR and ChIP-seq of Sin3-(HA)3 in yeast", "format": "cell-based, S. cerevisiae", "conditions": "for Sin3 occupancy at URS-URA3 and INO1 (ChIP-qPCR) / number of genes with decreased Sin3 occupancy (ChIP-seq): 400 μM; for Sin3 occupancy at URS-URA3 and INO1 (ChIP-qPCR): 2 h; for number of genes with decreased Sin3 occupancy (ChIP-seq) / number of genes with reduced Sin3 occupancy (ChIP-seq): of 545 Sin3-occupied genes; for number of genes with decreased Sin3 occupancy (ChIP-seq): FIG. 5D; for number of genes with reduced Sin3 occupancy (ChIP-seq): FIG. 5K", "experimental": "ChIP procedures in yeast were adapted from previously established protocols, with minor modifications [Sertil et al 2007, Jezek et al 2017, Barski et al 2007]. Briefly, yeast S. cerevisiae JOY116 (sin3Δ) cells transformed with the YEplac181-Sin3-(HA)3 plasmid were cultured in liquid SC-L, until OD600 nm reached ˜0.7. […] (200 rpm). After 2 h of incubation, cells were treated with 1% formaldehyde for 20 min at 4° C. for cross-linking. Then, 125 mM glycine was applied for 5 min at room temperature to quench cross-linking. Yeast cells were centrifuged (10 min at 1,000 g), and the resulting pellets were washed twice with 50 mL ice-cold phosphate-buffered saline (PBS). Yeast pellets were resuspended in 500 μL of ChIP lysis buffer (50 mM HEPES-KOH pH 7.5, 140 mM NaCl, 1 mM EDTA, 1% Triton X-100, 0.1% sodium deoxycholate, 0.1% SDS, and yeast protease inhibitors). After that, 500 μL of the yeast suspensions in lysis buffer were mixed with 500 μL of zirconia beads in a screw-top microcentrifuge tube. For cell lysis, the tubes were vortexed at maximum speed for 15 min at 4° C. Cell lysates were collected by punching a hole on the bottom of the screw-cap tube, with a sterile needle, and centrifuging the lysates into new Eppendorf tubes. Then, 300 μL of lysates were added into 1.5 mL Bioruptor Pico microtubes with caps (Diagenode, cat #C30010016), and subsequent sonication was conducted with a Bioruptor Pico sonication device, in the following conditions: 30 s/3 cycles on, and 30 s/3 cycles off, at 4° C. The sonicated lysates were cleared by 30 min centrifugation at maximum speed at 4° C. The resulting cleared lysates, with sheared chromatin, were saved, snap freezed, and stored at −80° C. until use. Next, 10 μL cleared lysates were reverse-cross linked overnight, at 65° C., in the presence of proteinase K. Phenol-chloroform extractions and EtOH precipitations were then applied to purify the sheared DNA. DNA agarose gel running and DNA concentration measurements with a NanoDrop spectrophotometer were finally conducted to assess the size and yield of the sheared DNA, respectively.\nFor the pull-downs, 25 μg of sheared chromatin from each sample were diluted (1:10) in ice-cold dilution buffer (1% Triton X-100, 2 mM EDTA, 20 mM Tris-HCl pH 8, 150 mM NaCl, and yeast protease inhibitors), and mixed with 10 μg ChIP-grade anti-HA (Abcam, cat #ab9110), or isotype control anti-IgG (Abcam, cat #ab171870) antibodies. Then, 50 μL of pre-washed Dynabeads Protein G for Immunoprecipitation (ThermoFisher, cat #10003D) were added to each individual sample. Chromatin immunoprecipitation was performed by incubating samples at 4° C. overnight, under gentle shaking (300 rpm). The day after, the Dynabeads were washed three times with 1 mL ice-cold wash buffer (0.1% SDS, 1% Triton X-100, 2 mM EDTA, 20 mM Tris-HCl pH 8, 150 mM NaCl), and then once with 1 mL ice-cold final wash buffer (0.1% SDS, 1% Triton X-100, 2 mM EDTA pH 8, 20 mM Tris-HCl pH 8, 500 mM NaCl), using a magnetic rack. DNA was eluted with 120 μL elution buffer (1% SDS, 100 mM NaHCO3), by incubating samples at 30° C. for 15 min. For input, 10 μL of sheared cell lysates were added to 110 μL of elution buffer. Then, 4 μL proteinase K were added to the eluted DNA or inputs, and reverse-cross linking was achieved by incubating samples overnight at 65° C. After overnight incubation, phenol-chloroform extractions and EtOH precipitations were conducted to purify ChIP-DNA. The ChIP-DNA was eluted in a total volume of 200 μL ddH2O, and then used for ChIP-qPCR or ChIP-Seq. Briefly, for ChIP-qPCR, 4 μL of eluted ChIP-DNA were mixed with 5 μL of PowerUp SYBR Green master mix (Applied Biosystems, cat #A25743), and 1 μL of the primer mix (forward+reverse; 3 μM final concentration), for a total volume of 10 μL. Two technical replicates were generated for each DNA sample from three ChIP replicates. ChIP-DNA samples were then transferred into the 384-well skirted PCR plate (Applied Biosystems, cat #4343370). […]"}, "[2]": {"test_system": "SK-N-BE(2)-C neuroblastoma cells", "experiment": "Matrigel cell invasion assay", "format": "cell-based, human", "conditions": "FIG. 39A", "experimental": "SK-N-BE(2)C neuroblastoma cells were seeded at 5×10^4 cells per well density in a 24-well plate. Cells were treated for five days with compounds or with DMSO control in Dulbecco's Modified Eagle Medium containing 10% fetal bovine serum, penicillin and streptomycin, in quadruplicate. On Day five, cells were changed to serum-free medium with the same compound concentrations as during the 5-day treatment, and 50,000 cells were seeded on top of a Corning BioCoat Matrigel Invasion Chamber (cat #354480). Medium with 20% FBS was added as chemoattractant to the bottom of the well. Invasion assay was performed per manufacturer instructions. After 48 h, non-invading cells were removed by scrubbing with a cotton tip swab. Cells that remained inside the matrix were stained with 1% crystal violet dye and counted by eye. Percentage of invasive cells was calculated relative to DMSO control."}}, "note": "“Also recorded” adds a separate entry of the source.", "data": [{"smiles": "CC(NC(=O)c1c(O)n2ccccc2nc1=O)c1ccccc1", "note": "(racemic) [E6]", "values": [{"measurement": "Rpd3-sensitive acid phosphatase activity", "setting": "[1]", "result": "opposite behavior"}, {"measurement": "Sin3 occupancy at URS-URA3 and INO1 (ChIP-qPCR)", "setting": "Sin3 occupancy", "result": "significantly decreased; also recorded: decreased occupancy"}, {"measurement": "number of genes with decreased Sin3 occupancy (ChIP-seq)", "setting": "Sin3 occupancy", "result": 360, "unit": "genes"}, {"measurement": "Sin3 occupancy at INO1, IME2 and CAR1 (ChIP-Seq traces)", "setting": "Sin3 occupancy; not at SPO3 or TRK2", "result": "reduced"}, {"measurement": "number of genes with reduced Sin3 occupancy (ChIP-seq)", "setting": "Sin3 occupancy", "result": 450, "unit": "genes"}]}, {"smiles": "C[C@@H](NC(=O)c1c(O)n2ccccc2nc1=O)c1ccccc1", "note": "[E6R, 4-hydroxy-2-oxo-N—((R)-1-phenylethyl)-3,4-dihydro-2H-pyrido[, 2-a]pyrimidine-3-carboxamide]", "values": [{"measurement": "migration of neuroblastoma cells in the invasion assay", "setting": "[2]", "result": "significantly reduce"}]}, {"smiles": "CC(/C=C/C(=O)NO)=C\\[C@@H](C)C(=O)c1ccc(N(C)C)cc1", "note": "[TSA, trichostatin A]", "values": [{"measurement": "Rpd3-sensitive acid phosphatase activity", "setting": "[1]", "result": "induced"}, {"measurement": "migration of neuroblastoma cells in the invasion assay", "setting": "[2]", "result": "significantly reduce"}, {"measurement": "Sin3 occupancy at URS-URA3 and INO1 (ChIP-qPCR)", "setting": "Sin3 occupancy", "result": "appeared to prevent recruitment of Sin3; also recorded: decreased occupancy"}, {"measurement": "number of genes with decreased Sin3 occupancy (ChIP-seq)", "setting": "Sin3 occupancy", "result": 142, "unit": "genes"}, {"measurement": "number of genes with reduced Sin3 occupancy (ChIP-seq)", "setting": "Sin3 occupancy", "result": 295, "unit": "genes"}]}]}
